Laboratory results from patent US8557875B2, “Gene transfer agent composition containing polyamidoamine dendron” (Public University Corporation Osaka Prefecture University, priority 2009, dated 2013).

Columns and labels:
Format in all cases: cell-based
HeLa-S3 = assay: Gene transfer (GFP expression, luciferase activity) versus commercial agents (Example 5); details: HeLa-S3 adherent cells; compared with Lipofectamine LTX and FuGENE HD
Protocol: (§1) pEGFP-C1 expressing a green fluorescent protein was used as a gene transfer plasmid; and adherent cells COS-7 and Hela-S3, and non-adherent cells K562, which were established cell lines, were used as target cells. Lipoplexes were individually prepared using DL-U2. Then, gene transfer was performed.
(HeLa—S3 cells: 3×10^4 cells/well·DMEM+10% FBS (Pe/St) 500 μl)
(§2) (i) A 20 mM Tris-HCl (pH 7.4) buffer was dispensed into three tubes at 35.5 μl (for NP ratio=6) for each of two tubes, and 23 μl (for NP ratio=8) for the remaining tube.
(§3) (ii) 1.0 μg of plasmid DNA (pCAG-GFP) was added to each of the three tubes prepared in step (i) at 2 μl (1.0 μg), and the contents were stirred.
(§4) (iii) A DL-U2 liposome solution was added to the three tubes prepared in step (ii) at 37.5 μl (N/P ratio=6) for each of two tubes, and 50 μl (N/P ratio=8) for the remaining tube.
(§5) (iv) 25 μl of an Opti-MEM (registered trademark) I Reduced-Serum Medium was further added, and the whole was thoroughly mixed and allowed to stand at room temperature for 5 minutes.
100 μl of the DL-plasmid DNA complex solution (N/P ratio=6) was added and mixed with the HeLa—S3 cells. […]
(§6) (vii) 48 hours later, luciferase activity was measured according to the protocol of the luciferase assay system (Promega, E1501) (relative values based on the activity of LTX defined as 1 were graphed).

K562 [1] = assay: as above; details: K562 non-adherent cells; compared with Lipofectamine LTX and FuGENE HD
Protocol: as §1, §2, §3, §4, §5
50 μl of the DL-plasmid DNA complex solution (N/P ratio=8) was added and mixed with the K562 cells. […]
as §6

K562 [2] = assay: Cytotoxic evaluation on gene transfer (Example 5); details: compared with Lipofectamine LTX and FuGENE HD

`CCCCCCCC/C=C\CCCCCCCCN(CCCCCCCC/C=C\CCCCCCCC)CCC(=O)NCCN(CCC(=O)NCCN)CCC(=O)NCCN` (racemic) [DL-G1-U2] was tested, and the gene transfer activity (HeLa-S3) was “excellent gene transfer activity”, the gene transfer activity (K562 [1]) was “excellent gene transfer activity” and the cytotoxicity (K562 [2]) was “lower cytotoxicity”.
